{
  "source": "paper PMC4842970",
  "about": "“Bioactivity Focus of α-Cyano-4-hydroxycinnamic acid (CHCA) Leads to Effective Multifunctional Aldose Reductase Inhibitors” (Scientific Reports, 2016)",
  "origin": "cited, not measured here",
  "tested_on": "AR",
  "parameters": "method as in PMID 22316239",
  "details": "read-out: IC50 (AR inhibition); cited from earlier work",
  "data": [
    {"compound": "O=C(O)/C=C/c1ccc(O)cc1", "note": "[p-coumaric acid]", "values": [
      {"measurement": "IC50", "result": 0.14, "unit": "µM"}
    ]}
  ]
}
